Where a SMILES comes first, the peptide text is derived from it. Bridges are numbered along the chain shown (N, C = ends). [ ]: non-standard residue; d: D form. The star is where a group is joined. Bip = N[C@@H](Cc1ccc(-c2ccccc2)cc1)C(=O)O; Phe(3-Cl) = N[C@@H](Cc1cccc(Cl)c1)C(=O)O; Phe(3-Me) = Cc1cccc(C[C@H](N)C(=O)O)c1; 3Pal = N[C@@H](Cc1cccnc1)C(=O)O; 4Pal = N[C@@H](Cc1ccncc1)C(=O)O; Cha = N[C@@H](CC1CCCCC1)C(=O)O; Cit = NC(=O)NCCC[C@H](N)C(=O)O; Carboxymethyl = O=C(O)C*; Orn = NCCC[C@H](N)C(=O)O; Dab = NCC[C@H](N)C(=O)O; Dap = NC[C@H](N)C(=O)O
Target: T1, human PD-1 / PD-L1-Ig binding on Jurkat cell line over-expressing human PD-1 (Jurkat-PD-1) (Homo sapiens, UniProt Q15116)
T1 construct: expressed in transfected cells; host or cells: Jurkat
Assay: Jurkat-PD-1 Cell Binding High-Content Screening Assay (CBA)
Format: cell-based
Details: Jurkat HPD1_PDL1 IC50, Jurkat-PD-1 cells, PE-labeled PD-L1-Ig 20 nM final
Summary of the method: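 PE-PD-L1-Ig 20 nM final; cells in DMEM/10% FCS; cpd pre-incubation 2 h, 37° C; ligand 1 h; PFA fix + Hoechst 33342; high-content imaging read-out.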

T1 sequence (Q15116 25-288): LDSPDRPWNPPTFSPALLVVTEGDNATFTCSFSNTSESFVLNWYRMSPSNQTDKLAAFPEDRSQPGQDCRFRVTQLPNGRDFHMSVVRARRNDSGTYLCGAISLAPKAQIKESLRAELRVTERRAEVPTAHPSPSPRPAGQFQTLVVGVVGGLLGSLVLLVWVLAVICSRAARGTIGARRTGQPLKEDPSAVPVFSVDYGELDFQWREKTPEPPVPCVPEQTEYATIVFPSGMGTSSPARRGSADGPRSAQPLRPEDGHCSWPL

Row | SMILES | IC50
1 | Cc1cccc(C[C@@H]2NC(=O)[C@H](CC(=O)O)NC(=O)[C@H](Cc3ccc(C(=O)O)cc3)NC(=O)[C@H](Cc3ccncc3)NC(=O)CSC[C@@H](C(=O)N[C@@H](C)C(N)=O)NC(=O)[C@H]([C@@H](C)O)NC(=O)[C@H](C(C)C)NC(=O)[C@H](CC3CCCCC3)NC(=O)[C@H](Cc3c[nH]cn3)NC(=O)[C@@H](CC(C)C)NC(=O)[C@H](CCCN)NC(=O)[C@H](C(C)C)NC(=O)[C@H](Cc3ccc(-c4ccccc4)cc3)NC(=O)[C@H](C(C)C)NC2=O)c1 [Compound 1581] | 22.4 nM
2 | Cc1cccc(C[C@@H]2NC(=O)[C@H](CC(=O)O)NC(=O)[C@H](Cc3ccncc3)NC(=O)[C@H](Cc3ccc(OCC(=O)O)cc3)NC(=O)CSC[C@@H](C(=O)NCC(N)=O)NC(=O)[C@H](CO)NC(=O)[C@H](C(C)C)NC(=O)[C@H](CC3CCCCC3)NC(=O)[C@H](Cc3c[nH]cn3)NC(=O)[C@@H](CC(C)C)NC(=O)[C@H](CCCN)NC(=O)[C@H](C(C)C)NC(=O)[C@H](Cc3ccc(-c4ccccc4)cc3)NC(=O)[C@H](CC(C)C)NC2=O)c1 [Compound 1585] ({CH2CO}-Y(Carboxymethyl)[4Pal]D[Phe(3-Me)]L[Bip]V[Orn][dL]H[Cha]VSCG-NH2; thioether N-14) | 50.4 nM
3 | CC(C)C[C@H]1NC(=O)[C@H](CCCN)NC(=O)[C@H](C(C)C)NC(=O)[C@H](Cc2ccc(-c3ccccc3)cc2)NC(=O)[C@H](C(C)C)NC(=O)[C@H](Cc2c[nH]c3ccccc23)NC(=O)[C@H](CC(=O)O)NC(=O)[C@H](Cc2ccc(OCC(=O)O)cc2)NC(=O)[C@H](Cc2ccc(OCC(=O)O)cc2)NC(=O)CSC[C@@H](C(=O)N[C@@H](C)C(N)=O)NC(=O)[C@H]([C@@H](C)O)NC(=O)[C@H](C(C)C)NC(=O)[C@H](CC2CCCCC2)NC(=O)[C@H](Cc2c[nH]cn2)NC1=O [Compound 1591] | 17.9 nM
4 | CC[C@H](C)[C@@H]1NC(=O)[C@H](Cc2ccc(-c3ccccc3)cc2)NC(=O)[C@H](C(C)C)NC(=O)[C@H](Cc2c[nH]c3ccccc23)NC(=O)[C@H](CC(=O)O)NC(=O)[C@H](Cc2ccc(OCC(=O)O)cc2)NC(=O)[C@H](Cc2ccc(OCC(=O)O)cc2)NC(=O)CSC[C@@H](C(=O)N[C@@H](C)C(N)=O)NC(=O)[C@H]([C@@H](C)O)NC(=O)[C@H](C(C)C)NC(=O)[C@H](CC2CCCCC2)NC(=O)[C@H](Cc2c[nH]cn2)NC(=O)[C@@H](CC(C)C)NC(=O)[C@H](CCCN)NC1=O [Compound 1592] | 31.5 nM

Same assay, conditions: Jurkat-PD-1 cells, PE-labeled PD-L1-Ig 20 nM final; read-out: Jurkat HPD1_PDL1 IC50

Row | SMILES | IC50
5 | CC(C)C[C@H]1NC(=O)[C@H](CCCN)NC(=O)[C@H](C(C)C)NC(=O)[C@H](Cc2ccc(-c3ccccc3)cc2)NC(=O)[C@H](C(C)C)NC(=O)[C@H](Cc2cccc(C(F)(F)F)c2)NC(=O)[C@H](CC(=O)O)NC(=O)[C@H](Cc2ccc(OCC(=O)O)cc2)NC(=O)[C@H](Cc2ccncc2)NC(=O)CSC[C@@H](C(=O)N[C@@H](C)C(N)=O)NC(=O)[C@H]([C@@H](C)O)NC(=O)[C@H](C(C)C)NC(=O)[C@H](CC2CCCCC2)NC(=O)[C@H](CCN)NC1=O [Compound 1577] | 12.1 nM
6 | Cc1cccc(C[C@@H]2NC(=O)[C@H](CC(=O)O)NC(=O)[C@H](Cc3ccc(OCC(=O)O)cc3)NC(=O)[C@H](Cc3cccnc3)NC(=O)CSC[C@@H](C(=O)NCC(N)=O)NC(=O)[C@H](CO)NC(=O)[C@H](C(C)C)NC(=O)[C@H](CC3CCCCC3)NC(=O)[C@H](Cc3cnc[nH]3)NC(=O)[C@@H](CC(C)C)NC(=O)[C@H](CCCN)NC(=O)[C@H](C(C)C)NC(=O)[C@H](Cc3ccc(-c4ccccc4)cc3)NC(=O)[C@H](CC(C)C)NC2=O)c1 [Compound 1582] ({CH2CO}-[3Pal]Y(Carboxymethyl)D[Phe(3-Me)]L[Bip]V[Orn][dL]H[Cha]VSCG-NH2; thioether N-14) | 36.2 nM
7 | Cc1cccc(C[C@@H]2NC(=O)[C@H](CC(=O)O)NC(=O)[C@H](Cc3ccc(OCC(=O)O)cc3)NC(=O)[C@H](Cc3ccncc3)NC(=O)CSC[C@@H](C(=O)N[C@@H](C)C(N)=O)NC(=O)[C@H]([C@@H](C)O)NC(=O)[C@H](C(C)C)NC(=O)[C@H](CC3CCCCC3)NC(=O)[C@H](Cc3cnc[nH]3)NC(=O)[C@@H](CC(C)C)NC(=O)[C@H](CCCN)NC(=O)[C@H](C(C)C)NC(=O)[C@H](Cc3ccc(-c4ccccc4)cc3)NC(=O)[C@H](C(C)C)NC2=O)c1 [Compound 1588] | 25.4 nM
8 | CC(C)C[C@H]1NC(=O)[C@H](CCCN)NC(=O)[C@H](CCC(=O)O)NC(=O)[C@H](Cc2ccc(-c3ccccc3)cc2)NC(=O)[C@H](C(C)C)NC(=O)[C@H](Cc2c[nH]c3ccccc23)NC(=O)[C@H](CC(=O)O)NC(=O)[C@H](Cc2ccc(OCC(=O)O)cc2)NC(=O)[C@H](Cc2ccc(OCC(=O)O)cc2)NC(=O)CSC[C@@H](C(=O)N[C@@H](C)C(N)=O)NC(=O)[C@H]([C@@H](C)O)NC(=O)[C@H](C(C)C)NC(=O)[C@H](CC2CCCCC2)NC(=O)[C@H](Cc2cnc[nH]2)NC1=O [Compound 1593] | 23 nM

Now from value to compound:

Row | IC50 | SMILES
9 | 35 nM | CC(C)C[C@H]1NC(=O)[C@H](CCCN)NC(=O)[C@H](C(C)C)NC(=O)[C@H](Cc2ccc(-c3ccccc3)cc2)NC(=O)[C@H](C(C)C)NC(=O)[C@H](Cc2cccc(Cl)c2)NC(=O)[C@H](CC(=O)O)NC(=O)[C@H](Cc2ccncc2)NC(=O)[C@H](CN)NC(=O)CSC[C@@H](C(=O)N[C@@H](C)C(N)=O)NC(=O)[C@H]([C@@H](C)O)NC(=O)[C@H](C(C)C)NC(=O)[C@H](CC2CCCCC2)NC(=O)[C@H](CCN)NC1=O [Compound 1578] ({CH2CO}-[Dap][4Pal]D[Phe(3-Cl)]V[Bip]V[Orn][dL][Dab][Cha]VTCA-NH2; thioether N-14)
10 | 30.3 nM | CC(C)C[C@H]1NC(=O)[C@H](CCCN)NC(=O)[C@H](C(C)C)NC(=O)[C@H](Cc2ccc(-c3ccccc3)cc2)NC(=O)[C@H](C(C)C)NC(=O)[C@H](Cc2cccc(C(F)(F)F)c2)NC(=O)[C@H](CC(=O)O)NC(=O)[C@H](Cc2ccc(OCC(=O)O)cc2)NC(=O)[C@H](CN)NC(=O)CSC[C@@H](C(=O)N[C@@H](C)C(N)=O)NC(=O)[C@H]([C@@H](C)O)NC(=O)[C@H](C(C)C)NC(=O)[C@H](CC2CCCCC2)NC(=O)[C@H](CCN)NC1=O [Compound 1576]
11 | 26 nM | Cc1cccc(C[C@@H]2NC(=O)[C@H](CC(=O)O)NC(=O)[C@H](Cc3ccc(OCC(=O)O)cc3)NC(=O)[C@H](Cc3cccnc3)NC(=O)CSC[C@@H](C(=O)N[C@@H](C)C(N)=O)NC(=O)[C@H]([C@@H](C)O)NC(=O)[C@H](C(C)C)NC(=O)[C@H](CC3CCCCC3)NC(=O)[C@H](Cc3cnc[nH]3)NC(=O)[C@@H](CC(C)C)NC(=O)[C@H](CCCN)NC(=O)[C@H](C(C)C)NC(=O)[C@H](Cc3ccc(-c4ccccc4)cc3)NC(=O)[C@H](C(C)C)NC2=O)c1 [Compound 1587]
12 | 20 nM | Cc1cccc(C[C@@H]2NC(=O)[C@H](CC(=O)O)NC(=O)[C@H](Cc3ccncc3)NC(=O)[C@H](CN)NC(=O)CSC[C@@H](C(=O)N[C@@H](C)C(N)=O)NC(=O)[C@H]([C@@H](C)O)NC(=O)[C@H](C(C)C)NC(=O)[C@H](CC3CCCCC3)NC(=O)[C@H](Cc3cnc[nH]3)NC(=O)[C@@H](CC(C)C)NC(=O)[C@H](CCCN)NC(=O)[C@H](C(C)C)NC(=O)[C@H](Cc3ccc(-c4ccccc4)cc3)NC(=O)[C@H](C(C)C)NC2=O)c1 [Compound 1583]
13 | 17.8 nM | Cc1cccc(C[C@@H]2NC(=O)[C@H](CC(=O)O)NC(=O)[C@H](Cc3ccc(OCC(=O)O)cc3)NC(=O)[C@H](CN)NC(=O)CSC[C@@H](C(=O)N[C@@H](C)C(N)=O)NC(=O)[C@H]([C@@H](C)O)NC(=O)[C@H](C(C)C)NC(=O)[C@H](CC3CCCCC3)NC(=O)[C@H](Cc3cnc[nH]3)NC(=O)[C@@H](CC(C)C)NC(=O)[C@H](CCCN)NC(=O)[C@H](C(C)C)NC(=O)[C@H](Cc3ccc(-c4ccccc4)cc3)NC(=O)[C@H](C(C)C)NC2=O)c1 [Compound 1579]
14 | 17.7 nM | Cc1cccc(C[C@@H]2NC(=O)[C@H](CC(=O)O)NC(=O)[C@H](Cc3ccc(O)cc3)NC(=O)[C@H](CC(N)=O)NC(=O)CSC[C@@H](C(=O)N[C@@H](C)C(N)=O)NC(=O)[C@H]([C@@H](C)O)NC(=O)[C@H](C(C)C)NC(=O)[C@H](CC3CCCCC3)NC(=O)[C@H](Cc3cnc[nH]3)NC(=O)[C@@H](CC(C)C)NC(=O)[C@H](CCCN)NC(=O)[C@H](C(C)C)NC(=O)[C@H](Cc3ccc(-c4ccccc4)cc3)NC(=O)[C@H](C(C)C)NC2=O)c1 [Compound 1586] ({CH2CO}-NYD[Phe(3-Me)]V[Bip]V[Orn][dL]H[Cha]VTCA-NH2; thioether N-14)
15 | 16.4 nM | CC[C@H](C)[C@@H]1NC(=O)[C@H](Cc2ccc(-c3ccccc3)cc2)NC(=O)[C@H](C(C)C)NC(=O)[C@H](Cc2c[nH]c3ccccc23)NC(=O)[C@H](CC(=O)O)NC(=O)[C@H](Cc2ccc(OCC(=O)O)cc2)NC(=O)[C@H](CN)NC(=O)CSC[C@@H](C(=O)N[C@@H](C)C(N)=O)NC(=O)[C@H]([C@@H](C)O)NC(=O)[C@H](C(C)C)NC(=O)[C@H](CC2CCCCC2)NC(=O)[C@H](Cc2cnc[nH]2)NC(=O)[C@@H](CC(C)C)NC(=O)[C@H](CCCN)NC1=O [Compound 1589]
16 | 9 nM | CC(C)C[C@H]1NC(=O)[C@H](CCCN)NC(=O)[C@H](CCCNC(N)=O)NC(=O)[C@H](Cc2ccc(-c3ccccc3)cc2)NC(=O)[C@H](C(C)C)NC(=O)[C@H](Cc2c[nH]c3ccccc23)NC(=O)[C@H](CC(=O)O)NC(=O)[C@H](Cc2ccc(OCC(=O)O)cc2)NC(=O)[C@H](CN)NC(=O)CSC[C@@H](C(=O)N[C@@H](C)C(N)=O)NC(=O)[C@H]([C@@H](C)O)NC(=O)[C@H](C(C)C)NC(=O)[C@H](CC2CCCCC2)NC(=O)[C@H](Cc2c[nH]cn2)NC1=O [Compound 1590] ({CH2CO}-[Dap]Y(Carboxymethyl)DWV[Bip][Cit][Orn][dL]H[Cha]VTCA-NH2; thioether N-14)
